This is an account of results in patent US20110045101A1, “FUNGICIDAL SUBSTITUTED AZOLES” (E.I. Du Pont De Nemours and Company, priority 2009, published 2011).

What all share (type): in vivo
Holding throughout (settings): 100 = 100% disease control

Assay [1] relates to Septoria nodorum. Briefly: Test F: wheat glume blotch on wheat seedlings, sprayed the day before inoculation, visual disease rating. Put shortly:
(§1)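 Spray suspension: acetone 3% of final volume, then 50/50 acetone/water plus 250 ppm Trem® 014. Applied to run-off on seedlings at 200 ppm (≈500 g/ha); starred entries tested at 40 ppm.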

For assay [2], the system named is Botrytis cinerea. Briefly: Test C: tomato Botrytis on tomato seedlings, sprayed the day before inoculation, visual disease rating. Put shortly: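 Spray to run-off on tomato seedlings; test conc. 200 ppm (≈500 g/ha), some entries 40 ppm. Formulation: acetone 3% of final vol., then acetone/water 50:50 + 250 ppm polyhydric alcohol ester surfactant.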
The subject of assay [3] is Septoria tritici. Briefly: Test G: wheat leaf blotch on wheat seedlings, sprayed the day before inoculation, visual disease rating. The gist of the method:
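Disease was rated visually after Septoria tritici inoculation, 48 h saturated incubation at 24°C and 19 days in a 20°C growth chamber. Inoculation followed one day after run-off spraying of seedlings with compound at 200 ppm (≈500 g/ha) or, where marked, 40 ppm, formulated in acetone/water with surfactant.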

Assay [4] has as its system Puccinia recondita f. sp. tritici. Briefly: Test I: wheat leaf rust on wheat seedlings, sprayed the day before inoculation, visual disease rating. Put shortly: as §1
Assay [5] concerns Erysiphe graminis f. sp. tritici. Briefly: Test J: wheat powdery mildew on wheat seedlings, sprayed the day before inoculation, visual disease rating. Put shortly:
as §1

Assay [6] deals with Alternaria solani. Briefly: Test D: tomato early blight, sprayed the day before inoculation, visual disease rating. The gist of the method: as §1
Assay [7] has as its system Puccinia recondita f. sp. tritici. Put plainly: Test H: wheat leaf rust, test suspension sprayed after inoculation of wheat seedlings, visual disease rating. The gist of the method:
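Wheat seedlings inoculated with P. recondita spores, held 24 h saturated at 20 °C, then 2 days in growth chamber at 20 °C; compound suspension (acetone/water with Trem 014) sprayed to run-off afterwards. Rated visually; 200 ppm (≈500 g/ha) unless marked *, which denotes 40 ppm.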

[8] abbreviates: 200 ppm, 0 = no control relative to controls.

Marks after values point to notes of the source that are not given here.

Turning to `CN(C)c1ccc(-n2cnc(Cl)c2-c2c(F)cccc2F)cc1` [compound 635], in assay [1] (40 ppm (marked *)), the “Test F disease control rating” value is on record as 0* %. For the same compound, in assay [2] (40 ppm (marked *)), the “Test C disease control rating” value is recorded as 99* %. Also, the “Test G disease control rating” value in assay [3] (40 ppm (marked *)) was 81* %. In addition, the “Test I disease control rating” value in assay [4] (40 ppm (marked *)) is listed as 39* %. Besides, the “Test J disease control rating” value in assay [5] (40 ppm (marked *)) is on record as 0* %. In addition, the “Test D disease control rating” value in assay [6] (40 ppm (marked *)) is recorded as 0* %. Further, the “Test H disease control rating” value in assay [7] (40 ppm (marked *)) is 0* %.

For the compound `CC(=O)Nc1ccc(-n2c(Cl)nc(Cl)c2-c2c(F)cccc2F)cc1Cl` [compound 636], the “Test F disease control rating” value in assay [1] (40 ppm (marked *)) is on record as 0* %. Further, in assay [2] (40 ppm (marked *)), the “Test C disease control rating” value is reported as 90* %. In assay [3] (40 ppm (marked *)), the “Test G disease control rating” value was 95* %. The “Test I disease control rating” value in assay [4] (40 ppm (marked *)) is 52* %. For the same compound, the “Test J disease control rating” value in assay [5] (40 ppm (marked *)) is recorded as 0* %. Besides, in assay [6] (40 ppm (marked *)), the “Test D disease control rating” value is given as 24* %. Also, the “Test H disease control rating” value in assay [7] (40 ppm (marked *)) was 0* %.

For `CC(=O)Nc1ccc(-n2c(Cl)nc(Cl)c2-c2c(F)cccc2F)cc1` [compound 637], the “Test F disease control rating” value in assay [1] (40 ppm (marked *)) is listed as 0* %. In addition, the “Test C disease control rating” value in assay [2] (40 ppm (marked *)) is listed as 97* %. In assay [3] (40 ppm (marked *)), the “Test G disease control rating” value is 92* %. Also, the “Test I disease control rating” value in assay [4] (40 ppm (marked *)) is 65* %. Further, the “Test J disease control rating” value in assay [5] (40 ppm (marked *)) is given as 0* %. Further, in assay [6] (40 ppm (marked *)), the “Test D disease control rating” value is listed as 0* %. Besides, in assay [7] (40 ppm (marked *)), the “Test H disease control rating” value is 0* %.

For the compound `COc1cc(F)c(-c2c(Cl)nc(N)n2-c2ccc(Cl)cc2)c(F)c1` [compound 638], in assay [1] (setting [8]), the “Test F disease control rating” value is given as 55%. Further, the “Test C disease control rating” value in assay [2] (setting [8]) is on record as 99%. Further, the “Test G disease control rating” value in assay [3] (setting [8]) is given as 99%. Also, the “Test I disease control rating” value in assay [4] (setting [8]) came to 95%. In assay [5] (setting [8]), the “Test J disease control rating” value worked out at 56%. The “Test D disease control rating” value in assay [6] (setting [8]) worked out at 99%. The “Test H disease control rating” value in assay [7] (setting [8]) came to 0%.

Turning to `COc1cc(OC)c(Cl)c(-n2cnc(Br)c2-c2ccc(Cl)cc2F)c1` [compound 641], in assay [1] (setting [8]), the “Test F disease control rating” value is given as 94%. In addition, in assay [2] (setting [8]), the “Test C disease control rating” value was 95%. The “Test G disease control rating” value in assay [3] (setting [8]) amounted to 99%. Besides, in assay [4] (setting [8]), the “Test I disease control rating” value is 100%. The “Test J disease control rating” value in assay [5] (setting [8]) is 83%. In addition, the “Test D disease control rating” value in assay [6] (setting [8]) amounted to 96%. Besides, in assay [7] (setting [8]), the “Test H disease control rating” value came to 100%.

In the case of `COc1cc(OC)c(Br)c(-n2cnc(Br)c2-c2ccc(Cl)cc2F)c1Cl` [compound 642], the “Test F disease control rating” value in assay [1] (40 ppm (marked *)) is given as 0* %. Also, in assay [2] (40 ppm (marked *)), the “Test C disease control rating” value is 97* %. Besides, in assay [3] (40 ppm (marked *)), the “Test G disease control rating” value was 94* %. In assay [4] (40 ppm (marked *)), the “Test I disease control rating” value was 98* %. The “Test J disease control rating” value in assay [5] (40 ppm (marked *)) is given as 56* %. Further, the “Test D disease control rating” value in assay [6] (40 ppm (marked *)) is listed as 0* %. Also, the “Test H disease control rating” value in assay [7] (40 ppm (marked *)) is 0* %.

Regarding `CC(=O)Nc1ccc(-n2c(Br)nc(Cl)c2-c2c(F)cccc2F)cc1` [compound 643], the “Test F disease control rating” value in assay [1] (40 ppm (marked *)) was 0* %. For the same compound, the “Test C disease control rating” value in assay [2] (40 ppm (marked *)) was 0* %. In addition, the “Test G disease control rating” value in assay [3] (40 ppm (marked *)) is 87* %. In assay [4] (40 ppm (marked *)), the “Test I disease control rating” value is recorded as 52* %. Besides, in assay [5] (40 ppm (marked *)), the “Test J disease control rating” value was 0* %. In addition, in assay [6] (40 ppm (marked *)), the “Test D disease control rating” value is reported as 0* %. The “Test H disease control rating” value in assay [7] (40 ppm (marked *)) is reported as 0* %.

For `COc1cc(F)c(-c2c(Cl)nc(Br)n2-c2ccc(OC)c(Cl)c2)c(F)c1` [compound 645], the “Test F disease control rating” value in assay [1] (40 ppm (marked *)) is reported as 0* %. Further, in assay [2] (40 ppm (marked *)), the “Test C disease control rating” value is listed as 99* %. The “Test G disease control rating” value in assay [3] (40 ppm (marked *)) is listed as 95* %. In addition, the “Test I disease control rating” value in assay [4] (40 ppm (marked *)) is given as 83* %. For the same compound, the “Test J disease control rating” value in assay [5] (40 ppm (marked *)) was 35* %. The “Test D disease control rating” value in assay [6] (40 ppm (marked *)) was 17* %. Moreover, in assay [7] (40 ppm (marked *)), the “Test H disease control rating” value is listed as 0* %.

Turning to `COc1cc(F)c(-c2c(Cl)nc(Cl)n2-c2ccc(OC)c(Cl)c2)c(F)c1` [compound 646], the “Test F disease control rating” value in assay [1] (40 ppm (marked *)) is on record as 0* %. The “Test C disease control rating” value in assay [2] (40 ppm (marked *)) is listed as 93* %. For the same compound, the “Test G disease control rating” value in assay [3] (40 ppm (marked *)) was 97* %. In assay [4] (40 ppm (marked *)), the “Test I disease control rating” value is 92* %. In addition, the “Test J disease control rating” value in assay [5] (40 ppm (marked *)) is 35* %. The “Test D disease control rating” value in assay [6] (40 ppm (marked *)) was 47* %. Further, the “Test H disease control rating” value in assay [7] (40 ppm (marked *)) is listed as 0* %.
